# Values joined by “and” are separate entries in the source; they are usually repeats but may differ in a detail not shown here. Equal entries are not always repeated. Where two headings read alike, the source gives them in different places. Numbered stars: 1 amine (or outer) side, 2 acyl side, 3 side chain; on linkers, the order of the positions; unused ones are H or OH. Square brackets hold non-standard residues; d marks the D form. Peptide text beside a SMILES is read from it. * marks the point of attachment. C18 diacid = O=C(O)CCCCCCCCCCCCCCCCC(=O)*; Phe(4-F) = N[C@@H](Cc1ccc(F)cc1)C(=O)O; γGlu = O=C(O)[C@H](CCC(=O)[*:2])N[*:1]; NMeL = CN[C@@H](CC(C)C)C(=O)O; hSer = N[C@@H](CCO)C(=O)O; Nle = CCCC[C@H](N)C(=O)O; AEEA = NCCOCCOCC(=O)O; Aib = CC(C)(N)C(=O)O
# How the values were obtained:
# hNK1R = molecular target: T1, hNK1R (Homo sapiens, UniProt P25103); assay: IP3 assay (inositol trisphosphate, 3H-myoinositol) in transiently transfected COS-7 cells; type: cell-based; conditions: for EC50: 0.2% ovalbumin buffer
# T1 construct: host or cells: COS-7
# T1 sequence (P25103 whole entry): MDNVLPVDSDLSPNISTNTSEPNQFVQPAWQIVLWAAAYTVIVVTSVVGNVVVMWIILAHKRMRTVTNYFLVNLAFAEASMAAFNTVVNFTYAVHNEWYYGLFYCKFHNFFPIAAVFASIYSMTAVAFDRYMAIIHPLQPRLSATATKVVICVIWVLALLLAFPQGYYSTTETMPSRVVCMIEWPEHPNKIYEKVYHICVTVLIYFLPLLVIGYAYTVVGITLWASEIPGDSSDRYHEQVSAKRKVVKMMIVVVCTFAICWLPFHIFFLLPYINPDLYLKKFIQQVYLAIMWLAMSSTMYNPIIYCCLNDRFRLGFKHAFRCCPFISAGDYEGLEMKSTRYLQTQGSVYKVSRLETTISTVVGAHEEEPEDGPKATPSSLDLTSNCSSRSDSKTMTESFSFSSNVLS
# Outline: (§1)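 COS-7 cells were transiently transfected with receptor plasmid and labelled with ³H-myo-inositol. Cells were lysed in formic acid, and ³H-inositol phosphates were captured on SPA YSI beads and counted.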
# hNK2R [1] = molecular target: T2, hNK2R (Homo sapiens, UniProt P21452); assay: as above; type: cell-based; conditions: for EC50: 0.2% ovalbumin buffer
# T2 construct: host or cells: COS-7
# T2 sequence (P21452 1-398): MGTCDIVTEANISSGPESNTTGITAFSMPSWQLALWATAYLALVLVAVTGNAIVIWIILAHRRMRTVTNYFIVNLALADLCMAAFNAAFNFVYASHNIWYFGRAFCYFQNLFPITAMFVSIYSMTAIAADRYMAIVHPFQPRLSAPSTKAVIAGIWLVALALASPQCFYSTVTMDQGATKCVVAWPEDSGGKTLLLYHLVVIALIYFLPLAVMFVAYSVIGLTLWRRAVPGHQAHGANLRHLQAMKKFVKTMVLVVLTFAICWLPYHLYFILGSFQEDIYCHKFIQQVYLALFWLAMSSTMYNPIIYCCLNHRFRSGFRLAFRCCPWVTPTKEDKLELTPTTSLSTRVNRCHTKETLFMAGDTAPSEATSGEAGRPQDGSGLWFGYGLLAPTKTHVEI
# Outline: as §1
# hNK3R = molecular target: T3, hNK3R (Homo sapiens, UniProt P29371); assay: as above; type: cell-based; conditions: for EC50: 0.2% ovalbumin buffer, read-out: hNK3, IP3 EC50
# T3 construct: host or cells: COS-7
# T3 sequence (P29371 1-465): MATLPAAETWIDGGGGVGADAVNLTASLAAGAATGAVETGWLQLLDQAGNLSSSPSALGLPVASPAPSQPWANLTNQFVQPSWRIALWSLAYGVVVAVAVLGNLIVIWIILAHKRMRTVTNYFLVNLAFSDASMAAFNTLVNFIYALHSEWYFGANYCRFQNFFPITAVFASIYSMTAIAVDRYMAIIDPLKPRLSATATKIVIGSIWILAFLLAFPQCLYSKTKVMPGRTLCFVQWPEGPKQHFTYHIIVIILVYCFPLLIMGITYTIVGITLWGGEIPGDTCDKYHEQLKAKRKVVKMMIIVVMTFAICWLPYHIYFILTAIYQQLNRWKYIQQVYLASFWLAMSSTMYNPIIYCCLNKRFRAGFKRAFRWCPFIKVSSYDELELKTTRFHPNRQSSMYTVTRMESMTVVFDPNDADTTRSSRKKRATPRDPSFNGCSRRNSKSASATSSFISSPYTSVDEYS
# Outline: as §1
# hNK2R [2] = molecular target: T2, hNK2R; assay: Hithunter cAMP assay (Gs-coupling) in transfected COS-7 cells; type: cell-based
# Procedure: (§2) As a secondary measure of agonist-induced G-protein coupled receptor (GPCR) activation cyclin adenosine monophosphate (cAMP) was measured by the Hithunter cAMP-assay from DiscoverX. Assays were carried out using COS-7 cells transiently transfected by calcium phosphate transfection with a vector pcDNA3.1(+) encoding one of the indicated receptors (Genscript). Briefly, DNA mixed with CaCl2 (2 M) and TE-buffer (10 mM Tris-HCl, 1 mM EDTA, pH 7.5) was dropwise added to 2×HBS (50 mM HEPES, 280 mM NaCl, 1.5 mM NaH2PO4, pH 7.2) and incubated for 45 min at room temperature (22±2° C.). The mixture and a final concentration of 100 μM Chloroquine were added to the cells and left to incubate for 5 hours at 37° C. under standard cell culture conditions (10% CO2) before changing medium to fresh maintenance medium.
# The cAMP-assay takes advantage of the tachykinin receptors' ability to induce production of the cAMP second messenger upon agonist (ligand) binding on receptor expressing cells. Production of cAMP stems from receptor coupling to Gs-protein although coupling to Gq-protein (IP3-production) is considered the primary signalling mechanism by tachykinin receptors.
# The assay was performed the day after transfection. Briefly, maintenance medium was aspirated, and plates were washed ×1 in HBSS before adding assay buffer (HBSS+1 mM IBMX), pre-incubated for 30 min at 37° C. followed by 15 min incubation with agonist (ligand) at 37° C. After incubation, plates were subjected to cell lysis and anti-cAMP-antibody incubation as described by manufacturer. Luminescence was measured with EnVision Multimode Plate Reader from Perkin Elmer.
# hNK2R [3] = molecular target: T2, hNK2R; assay: 3H-NKA competitive binding on transfected COS-7 cells; conditions: competition with 3H-NKA, 4 h at 4 C
# Procedure: as §2, with “Assays” for “As a secondary measure of agonist-induced G-protein coupled receptor (GPCR) activation cyclin adenosine monophosphate (cAMP) was measured by the Hithunter cAMP-assay from DiscoverX. Assays”
# The ^3H-NKA binding assay measures peptide-receptor binding by a competitive principle of receptor binding between radioactively labelled (3H) NKA (tracer) and synthesized peptide ligands on live cells expressing the receptor of interest. Assay solutions used: TKR buffer (50 mM Tris/HCl pH 7.5, 5 mM MnCl2, and 150 mM NaCl), wash buffer (TKR buffer+0.2% w/v OvAlb), binding buffer (wash buffer+0.1 mg/ml Bacitracin), and tracer solution (binding buffer+˜15000 cpm/well ^3H-tracer). The assay was performed on ice the day after transfection.
# Briefly, maintenance medium was aspirated, and plates were washed ×1 in cold wash buffer before adding 100 μl cold binding buffer and placing at 4° C. to let plates cool. The cold plates were added indicated peptides (ligand) immediately followed by addition of cold tracer solution (˜15000 cpm/well). Plates were immediately moved to 4° C. and incubated for 4 hours. After incubation, binding was stopped by wash ×2 with cold wash buffer before adding 225 μl Ultima Gold XR. Plates were shaken at medium speed for approximately 30 min and left overnight at room temperature before counting the plates in a MicroBeta plate counter (Perkin Elmer).
# [4] = COS-7 cells, figure legends: percent of 10^-6 M NKA
SMILES,"hNK2R, IP3 Efficacy (hNK2R [1]) [%]",EC50 (hNK2R [1]; COS-7 cells) [nM],"hNK2R, cAMP Efficacy (hNK2R [2]) [%]",EC50 (hNK2R [3]) [nM],EC50 (hNK1R; COS-7 cells),"hNK1R, IP3 Efficacy (hNK1R; [4])","hNK2R, IP3 Efficacy (hNK2R [1]; [4])",EC50 (hNK3R; COS-7 cells) [nM],"hNK3, IP3 Efficacy (hNK3R; [4]) [%]",EC50 (hNK2R [2]; COS-7 cells) [nM],"hNK2R, cAMP Efficacy (hNK2R [2]; COS-7 cells) [%]","hNK1R, IP3 Efficacy (hNK1R) [%]","hNK3, IP3 Efficacy (hNK3R) [%]"
"CCCC[C@H](NC(=O)[C@H](CC(C)C)NC(=O)C(C)(C)NC(=O)[C@@H](NC(=O)[C@H](Cc1ccc(O)cc1)NC(=O)[C@H](CCCCN)NC(=O)[C@H](CC(=O)O)NC(=O)COCCOCCNC(=O)COCCOCCNC(=O)CC[C@H](NC(=O)CCCCCCCCCCCCCCCCC(=O)O)C(=O)O)C(C)C)C(N)=O [compound 395, *Asp;Lys;Tyr;Val;Aib;Leu;Nle;NH2] ({C18 diacid-γGlu-AEEA-AEEA}-DKYV[Aib]L[Nle]-NH2)",68,9,0,~104,–,–,–,–,–,–,–,0,0
"COCC[C@H](NC(=O)[C@H](CC(C)C)NC(=O)C(C)(C)NC(=O)[C@@H](NC(=O)[C@H](Cc1ccc(O)cc1)NC(=O)[C@H](CCCCN)NC(=O)[C@H](CC(=O)O)NC(=O)COCCOCCNC(=O)COCCOCCNC(=O)CC[C@H](NC(=O)CCCCCCCCCCCCCCCCC(=O)O)C(=O)O)C(C)C)C(N)=O [compound 394, *Asp;Lys;Tyr;Val;Aib;Leu;Metox;NH2] ({C18 diacid-γGlu-AEEA-AEEA}-DKYV[Aib]L[hSer](Me)-NH2)",–,5,–,~108,~940 nM,35%,90%,–,0,306,100,–,–
"COCC[C@H](NC(=O)[C@H](CC(C)C)NC(=O)CNC(=O)[C@@H](NC(=O)[C@H](Cc1ccc(O)cc1)NC(=O)[C@H](CCCCN)NC(=O)[C@H](CC(=O)O)NC(=O)COCCOCCNC(=O)COCCOCCNC(=O)CC[C@H](NC(=O)CCCCCCCCCCCCCCCCC(=O)O)C(=O)O)C(C)C)C(N)=O [compound 393, *Asp;Lys;Tyr;Val;Gly;Leu;Metox;NH2] ({C18 diacid-γGlu-AEEA-AEEA}-DKYVGL[hSer](Me)-NH2)",–,10,–,40,342 nM and 3400 nM,52%,100%,–,36,–,–,50,30
"COCC[C@H](NC(=O)[C@H](CC(C)C)NC(=O)[C@@H](CO)NC(=O)[C@@H](NC(=O)[C@H](Cc1ccc(O)cc1)NC(=O)[C@H](CCCCN)NC(=O)[C@H](CC(=O)O)NC(=O)COCCOCCNC(=O)COCCOCCNC(=O)CC[C@H](NC(=O)CCCCCCCCCCCCCCCCC(=O)O)C(=O)O)C(C)C)C(N)=O [compound 396, *Asp;Lys;Tyr;Val;dSer;Leu;Metox;NH2] ({C18 diacid-γGlu-AEEA-AEEA}-DKYV[dS]L[hSer](Me)-NH2)",–,20,–,316,–,0%,92%,–,0,–,–,–,–

# The next lines start with results.
"hNK2R, IP3 Efficacy (hNK2R [1]) [%]",EC50 (hNK2R [1]; COS-7 cells) [nM],"hNK2R, cAMP Efficacy (hNK2R [2]) [%]",EC50 (hNK2R [3]) [nM],EC50 (hNK1R; COS-7 cells),"hNK1R, IP3 Efficacy (hNK1R; [4])","hNK2R, IP3 Efficacy (hNK2R [1]; [4])",EC50 (hNK3R; COS-7 cells) [nM],"hNK3, IP3 Efficacy (hNK3R; [4]) [%]",EC50 (hNK2R [2]; COS-7 cells) [nM],"hNK2R, cAMP Efficacy (hNK2R [2]; COS-7 cells) [%]",SMILES,"hNK1R, IP3 Efficacy (hNK1R) [%]","hNK3, IP3 Efficacy (hNK3R) [%]"
–,1.7,–,76,~250 nM,40%,90%,~190,25,54,80,"CC(C)C[C@@H](C(=O)N[C@@H](Cc1ccc(F)cc1)C(N)=O)N(C)C(=O)CNC(=O)[C@@H](NC(=O)[C@H](Cc1ccc(O)cc1)NC(=O)[C@H](CCCCN)NC(=O)[C@H](CC(=O)O)NC(=O)COCCOCCNC(=O)COCCOCCNC(=O)CC[C@H](NC(=O)CCCCCCCCCCCCCCCCC(=O)O)C(=O)O)C(C)C [compound 369, *Asp;Lys;Tyr;Val;Gly;NmLeu;4-F-Phe;NH2] ({C18 diacid-γGlu-AEEA-AEEA}-DKYVG[NMeL][Phe(4-F)]-NH2)",–,–
–,2.5,–,27,–,20%,90%,–,0,~1.3,50,"CC(C)C[C@@H](C(=O)N[C@@H](Cc1ccccc1)C(N)=O)N(C)C(=O)CNC(=O)[C@@H](NC(=O)[C@H](Cc1ccc(O)cc1)NC(=O)[C@H](CCCCN)NC(=O)[C@H](CC(=O)O)NC(=O)COCCOCCNC(=O)COCCOCCNC(=O)CC[C@H](NC(=O)CCCCCCCCCCCCCCCCC(=O)O)C(=O)O)C(C)C [compound 353, *Asp;Lys;Tyr;Val;Gly;NmLeu;Phe;NH2] ({C18 diacid-γGlu-AEEA-AEEA}-DKYVG[NMeL]F-NH2)",–,–
–,12,–,41,20 nM,100%,120%,~160,50,20,100,"CSCC[C@H](NC(=O)[C@H](CC(C)C)N(C)C(=O)CNC(=O)[C@@H](NC(=O)[C@H](Cc1ccc(O)cc1)NC(=O)[C@H](CCCCN)NC(=O)[C@H](CC(=O)O)NC(=O)COCCOCCNC(=O)COCCOCCNC(=O)CC[C@H](NC(=O)CCCCCCCCCCCCCCCCC(=O)O)C(=O)O)C(C)C)C(N)=O [compound 316, *Asp;Lys;Tyr;Val;Gly;NmLeu;Met;NH2] ({C18 diacid-γGlu-AEEA-AEEA}-DKYVG[NMeL]M-NH2)",–,–
–,5.4,–,25,205 nM and 200 nM,52% and 30%,72% and 70%,–,0,–,–,"CCCC[C@H](NC(=O)[C@H](CC(C)C)NC(=O)CNC(=O)[C@@H](NC(=O)[C@H](Cc1ccc(O)cc1)NC(=O)[C@H](CCCCN)NC(=O)[C@H](CC(=O)O)NC(=O)COCCOCCNC(=O)COCCOCCNC(=O)CC[C@H](NC(=O)CCCCCCCCCCCCCCCCC(=O)O)C(=O)O)C(C)C)C(N)=O [compound 392, *Asp;Lys;Tyr;Val;Gly;Leu;Nle;NH2] ({C18 diacid-γGlu-AEEA-AEEA}-DKYVGL[Nle]-NH2)",–,–
